Series [1] relates to MDCK cells. Put plainly: Cell scattering behavior assay. The format is cell-based. The conditions noted are these: with 5 ng/mL HGF, 24 hours, normalized particle count compared to HGF treatment alone. The method in brief:
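MDCK cells starved 2 h in serum-free DMEM, then treated 24 h at 37 °C with compounds plus 5 ng/mL HGF. Cells were ethanol-fixed, WGA488-stained and imaged. Scattering was scored as particle count normalized to stained area, with activity taken as a statistical increase in normalized particle count over HGF alone.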

Series [2] can be described thus: In vitro stability in rat plasma. The class given is in vitro ADME. The conditions noted are these: 5 μM, 37° C. On the procedure:
(§1) Bioavailability can be estimated by compound stability when exposed to conditions in the body. As an initial assessment of stability properties in a variety of conditions present in animals, exemplary compounds were tested for stability in a battery of simulated body compartments. Compounds were tested for stability in the following solutions: simulated gastric fluid (SGF: 34.2 mM NaCl, pH 1.2), simulated gastric fluid with the digestive enzyme pepsin (SGF+Enzyme: SGF with 3.2 mg/ml pepsin), simulated intestinal fluid with the mixture of enzymes in porcine pancreatin (SIF+Enzyme: 28.7 mM NaH2PO4, 105.7 mM NaCl, pH 6.8, 10 mg/ml pancreatin), rat plasma, and human plasma.
(§2) Test compounds were incubated at a final concentration of 5 μM in the above solutions at 37° C. with samples removed at the following time points: 0, 1, 2, and 4 hours. Reactions were stopped and prepared for quantification by addition of excess quench solution containing an internal standard (acetonitrile, 200 ng/mL bucetin). Test compound and internal standard in each sample was quantified by LC-MS/MS, and after internal normalization to bucetin, test compound concentration was expressed as a percentage of concentration at the 0-hour time point. Stability in the relevant test solution was then determined by the percent remaining at the 4-hour time point.

Series [3] is described as follows: In vitro stability in human plasma. The conditions noted are these: 5 μM, 37° C. The format is in vitro ADME. On the procedure: as §1, §2
A short description of series [4]: In vivo tissue distribution. Also noted: species or system Sprague-dawley rats. The conditions noted are these: rat, 10 minutes post administration. As to the method: The rate of distribution to target tissues is an important feature of therapeutic molecules. Tissue distribution of exemplary compounds was performed in mixed-sex Sprague-dawley rats. Test compounds were delivered via tail vein injection (IV) and tissues were collected at Tmax (10 minutes post administration). Animals were deeply anesthetized with isoflurane and whole blood was collected from the right atrium and processed by centrifugation to produce plasma. Animals were then fully perfused with PBS administered to the left ventricle to prevent blood contamination of tissues.
Tissues were collected and homogenized, and compound content in the target tissue was quantified by LC-MS/MS. Tissue distribution rates were determined by dividing the tissue concentration of compound by the plasma concentration and multiplying by 100.

For the molecule `CCC(C)CN1CC2N(C(=O)c3ccc(OC(F)F)cc3)CCC(=O)N2[C@@H](C)C1=O` (stereo partly shown) [Compound 2a], the Potency entry in series [1] is on record as “+ (+ indicates maximum potency at or above 100 nM)”. The “Rat Plasma, compound remaining after 4 hours” value in series [2] was “++ (++ indicates 40-79% compound remaining after 4 hours)”. In addition, in series [3], the “Human Plasma, compound remaining after 4 hours” value is “++ (++ indicates 40-79% compound remaining after 4 hours)”. In addition, in series [4], the “Tissue Distribution (% Plasma exposure at 10 min post IV dose) Brain” value was “++ (++ indicates distribution between 5 and 39%)”; the “Tissue Distribution (% Plasma exposure at 10 min post IV dose) Cerebellum” value was “+ (+ indicates distribution between 0.05 and 5%)”; the “Tissue Distribution (% Plasma exposure at 10 min post IV dose) Cortex” value was “++ (++ indicates distribution between 5 and 39%)”; the “Tissue Distribution (% Plasma exposure at 10 min post IV dose) Hippocampus” value was “++ (++ indicates distribution between 5 and 39%)”. Further, the “Tissue Distribution (% Plasma exposure at 10 min post IV dose) Muscle” value in series [4] (muscle) is recorded as “++++ (++++ indicates distribution above 70%)”. For the same molecule, the “Tissue Distribution (% Plasma exposure at 10 min post IV dose) Sciatic Nerve” value in series [4] (sciatic nerve) is recorded as “++++ (++++ indicates distribution above 70%)”.

For `CCC(C)CN1CC2N(Cc3ccc(C(F)(F)F)cc3)CCC(=O)N2[C@@H](C)C1=O` (stereo partly shown) [Compound 5a], the Potency result in series [1] is “++++ (++++ indicates maximum potency at or above 0.1 nM)”. Besides, the “Rat Plasma, compound remaining after 4 hours” value in series [2] is listed as “++ (++ indicates 40-79% compound remaining after 4 hours)”. Moreover, the “Human Plasma, compound remaining after 4 hours” value in series [3] is reported as “++ (++ indicates 40-79% compound remaining after 4 hours)”. Further, in series [4], the “Tissue Distribution (% Plasma exposure at 10 min post IV dose) Brain” value is on record as “++++ (++++ indicates distribution above 70%)”, the “Tissue Distribution (% Plasma exposure at 10 min post IV dose) Cerebellum” value is “++++ (++++ indicates distribution above 70%)”, the “Tissue Distribution (% Plasma exposure at 10 min post IV dose) Cortex” value is listed as “++++ (++++ indicates distribution above 70%)” and the “Tissue Distribution (% Plasma exposure at 10 min post IV dose) Hippocampus” value is given as “++++ (++++ indicates distribution above 70%)”.

(Values after patent publication US20250041307A1, “Uses of Bicyclic Compounds for the Treatment of Diseases” (Athira Pharma, Inc., priority 2021, published 2025).)
